Measurements from patent US5817756A, “Pseudo- and non-peptide bradykinin receptor antagonists” (Scios Inc., priority 1995, dated 1998).
pKi: −log10 of the molar value. Starred links: 1 amine or outer side, 2 acyl side, 3 side chain; linkers in the order of their positions; H or OH if unused. Non-standard residues stand in square brackets, D forms with d. Residues, ends and D or L forms follow the SMILES beside them. X3 = O=C(Cn1c(=O)n(C2CCN([*:1])CC2)c2ccccc21)[*:2]; X7 = O=C(Cn1c(=O)c2ccccc2c2ccc(N[*:1])cc21)[*:2]; Butenoyl(2E,4-amino) = O=C(/C=C/CN[*:1])[*:2]; X4 = O=C(Cn1c2c(c3ccccc31)CN([*:1])CC2)[*:2]; Oic = O=C(O)[C@@H]1C[C@@H]2CCCC[C@@H]2N1; X1 = O=C(C/C=C/c1ccccc1CN[*:1])[*:2]; X6 = O=C(/C=C/c1ccccc1CCN[*:1])[*:2]; X2 = O=C(/C=C/c1ccccc1CN[*:1])[*:2]; dTic = O=C(O)[C@H]1Cc2ccccc2CN1; 12Ado = NCCCCCCCCCCCC(=O)O; Nphe = O=C(O)CNCc1ccccc1; Ahx = NCCCCCC(=O)O

Target: T1, human bradykinin B2 receptor (Homo sapiens, UniProt P30411)
T1 construct: The HindIII/XbaI fragment of one full-length clone, 126A, was inserted into pcDNAI neo vector; expressed in transfected cells
T1 sequence (P30411 1-391): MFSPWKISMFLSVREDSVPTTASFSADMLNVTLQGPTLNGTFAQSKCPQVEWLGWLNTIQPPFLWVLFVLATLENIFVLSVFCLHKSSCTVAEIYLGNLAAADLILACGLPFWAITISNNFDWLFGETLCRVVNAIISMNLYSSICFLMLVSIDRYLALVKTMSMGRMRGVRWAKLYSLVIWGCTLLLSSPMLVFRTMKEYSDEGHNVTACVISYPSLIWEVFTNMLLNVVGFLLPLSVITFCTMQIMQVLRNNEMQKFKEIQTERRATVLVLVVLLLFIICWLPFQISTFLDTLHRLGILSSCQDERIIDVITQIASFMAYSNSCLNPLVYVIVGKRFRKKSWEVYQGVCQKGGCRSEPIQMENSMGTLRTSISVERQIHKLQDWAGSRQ
Assay: Radioligand binding, H2O.2 cell membranes, 3H-bradykinin
Conditions: Table 1, read-out: Radioligand Binding Human 3HBK
Method: (§1) A human bradykinin B2 receptor was expressed in CHO/K cells. Briefly, approximately 2×10^6 plaques from a human uterus λgt10 cDNA library (Clontech Laboratories; Palo Alto, Calif.) were screened using a PCR fragment containing the coding region of the rat B2 receptor. This probe was generated by random-primed synthesis in the presence of α[^32 P]dATP. Duplicate filters were hybridized overnight at 42° C. in 1M NaCl, 50 mM Tris pH 7.5, 5× Denhardt's, 200 μg/ml salmon sperm DNA, 1% SDS, and 20% formamide. The filters were washed at 65° C. in 1× SSC and 1% SDS. Coincident positively hybridizing plaques were purified and rescreened with the same probe and stringency conditions. EcoRI fragments of positive clones were inserted into Bluescript/KS II+vector (Stratagene; La Jolla, Calif.) for sequence determination.
(§2) The nucleotide sequence of the cloned human B2 receptors was determined using double-stranded DNA and the dideoxy chain termination method. Commercially available T3 and T7 oligonucleotides (USB; Cleveland, Ohio) and synthetic 21-mer oligonucleotides (DNA/RNA Synthesizer; applied Biosystems Inc.; Palo Alto, Calif.) from both the known rat sequence and the determined human sequence were used to identify the nucleotide sequence from the 5' untranslated end to the BglII site in the 3' untranslated end of the clone.
(§3) CHO/K cells were plated in 2 ml of growth medium (Ham's F12 with 10% FBS) per 6 well plate and incubated at 37° C., 5% CO2 until they were 60% confluent. For each well, 4, 12, and 16 μg of DNA was diluted in 100 μl Opti-MEM I reduced serum medium (Gibco/BRL; Gaithersburg, Md.). 12 μl of TransfectASE reagent (Gibco/BRL) was diluted in a separate aliquot of 100 μl Opti-MEM I. The DNA and TransfecASE solutions were combined, mixed gently, and incubated at 25° C. for 15 minutes. This solution was then diluted to 1 ml with Opti-MEM I. Each well was washed twice with Opti-MEM I and 1 ml of the DNA/TransfectAse complex was added to each well. After a 5 hour incubation at 37° C. and 5% CO2, 1 ml of Ham's F12 with 20% FBS was added to each well and cells were incubated overnight. Media was replaced with growth medium and incubated for additional 24 hours.
(§4) This assay measures the ability of a bradykinin antagonist compound to compete for binding to the human B2 receptor with tritiated bradykinin or tritiated NPC17731, a bradykinin analog which is known to bind the B2 receptor and act as a bradykinin antagonist.
(§5) H2O.2 cells were grown to confluency in Ham's F12 media containing 10% FBS and 500 μg/ml Geneticin. Growth media was aspirated and the monolayer washed once with Dulbecco's PBS without Ca^++ and Mg^++. Cells were scraped in Dulbecco's PBS and centrifuged at 2,000×g for 10 minutes. Pellets were resuspended in 25 mM TES, 1 mM 1,10-phenanthroline pH 6.8 buffer and homogenized using a Ploytron at setting 5 for 10 seconds. An aliquot was taken for a protein determination using a BioRad protein assay kit. Membranes were centrifuged at 48,000×g for 10 minutes at 4° C. Pellets were resuspended in the TES buffer with 0.1% BSA and 0.014% bacitracin. 0.5 ml aliquots were frozen in liquid N2 and stored at -80° C. for up to 2 weeks.
(§6) Membranes from H2O.2 cells previously prepared were thawed at 37° C. and diluted in 25 mM TES, […] 1,10-phenanthroline pH 6.8 containing BSA and bactiracin. […] Non-specific binding was determined with 1 μM bradykinin. The tubes were incubated 90 minutes at 25° C. and the assay was terminated by rapid vacuum filtration onto Whatman GF/B filters presoaked with 0.2% PEI for 3 hours followed by 2×3 ml aliquots of ice-cold 50 mM Tris, pH 7.4. Radioactivity was counted with a Beckman scintillation counter.

SMILES | pKi
N=C(N)NCCC[C@@H](N)C(=O)N[C@@H](CCCNC(=N)N)C(=O)NCc1ccccc1/C=C/CC(=O)N[C@@H](CO)C(=O)N1Cc2ccccc2C[C@@H]1C(=O)N1[C@H](C(=O)N[C@@H](CCCNC(=N)N)C(=O)O)C[C@@H]2CCCC[C@@H]21 (H-[dR]R[X1]S[dTic][Oic]R-OH) | 7.29

Same assay, conditions: Table 2, read-out: Radioligand Binding, Ki Human 3HBK

SMILES | pKi
N=C(N)NCCC[C@@H](N)C(=O)N[C@@H](CCCNC(=N)N)C(=O)N1CCc2c(n(CCC(=O)N3CCC4(CC3)C(=O)N(CC(=O)N[C@@H](CCCNC(=N)N)C(=O)O)CN4c3ccccc3)c3ccccc23)C1 [Compound 3] | 6.24
N=C(N)NCCC[C@@H](N)C(=O)N[C@@H](CCCNC(=N)N)C(=O)N1CCC2(CC1)C(=O)N(CC(=O)N1CCc3c(n(CC(=O)N[C@@H](CCCNC(=N)N)C(=O)O)c4ccccc34)C1)CN2C1CCCCC1 [Compound 4] | 5.85
N=C(N)NCCC[C@@H](N)C(=O)N[C@@H](CCCNC(=N)N)C(=O)N1CCC2(CC1)C(=O)N(CC(=O)N1CCc3c(c4ccccc4n3CC(=O)N[C@@H](CCCNC(=N)N)C(=O)O)C1)CN2c1ccccc1 [Compound 7] | 6.49
N=C(N)NCCC[C@@H](N)C(=O)N[C@@H](CCCNC(=N)N)C(=O)N1CCC2(CC1)C(=O)N(CC(=O)N1CCc3c(n(CCC(=O)N[C@@H](CCCNC(=N)N)C(=O)O)c4ccccc34)C1)CN2c1ccccc1 [Compound 8] | 6.65
COc1ccc(N2CN(CC(=O)N3CCc4c(c5ccccc5n4CC(=O)N[C@@H](CCCNC(=N)N)C(=O)O)C3)C(=O)C23CCN(C(=O)[C@H](CCCNC(=N)N)NC(=O)[C@H](N)CCCNC(=N)N)CC3)cc1 [Compound 9] | 6.89
N=C(N)NCCC[C@@H](N)C(=O)N[C@@H](CCCNC(=N)N)C(=O)N1CCC2(CC1)C(=O)N(CC(=O)N1CCc3c(c4ccccc4n3CC(=O)N[C@@H](CCCNC(=N)N)C(=O)O)C1)CN2C1CCCCC1 [Compound 10] | 6.64
CCCN1CN(CC(=O)N2CCc3c(c4ccccc4n3CC(=O)N[C@@H](CCCNC(=N)N)C(=O)O)C2)C(=O)C12CCN(C(=O)[C@H](CCCNC(=N)N)NC(=O)[C@H](N)CCCNC(=N)N)CC2 [Compound 11] | 6.33

Other lines, results leading:

pKi | SMILES
6.77 | N=C(N)NCCC[C@@H](N)C(=O)N[C@@H](CCCNC(=N)N)C(=O)N1CCC2(CC1)C(=O)N(CC(=O)N1CCc3c(c4ccccc4n3CC(=O)N[C@@H](CCCNC(=N)N)C(=O)O)C1)CN2CC1CCCCC1 [Compound 12]
7.11 | Cc1cc(C)nc(NCCC[C@@H](NC(=O)Cn2c3c(c4ccccc42)CCN(C(=O)CN2CN(c4ccccc4)C4(CCN(C(=O)[C@H](CCCNC(=N)N)NC(=O)[C@H](N)CCCNC(=N)N)CC4)C2=O)C3)C(N)=O)n1 [Compound 14]
6.55 | Cc1cc(C)nc(NCCC[C@@H](NC(=O)Cn2c3c(c4ccccc42)CCN(C(=O)CN2CN(c4ccccc4)C4(CCN(C(=O)[C@@H](N)CCCNC(=N)N)CC4)C2=O)C3)C(N)=O)n1 [Compound 15]
6.67 | Cc1cc(C)nc(NCCC[C@@H](NC(=O)Cn2c3c(c4ccccc42)CCN(C(=O)CN2CN(c4ccccc4)C4(CCN(C(=O)[C@H](N)CCCNC(=N)N)CC4)C2=O)C3)C(N)=O)n1 [Compound 16]
7.28 | Cc1cc(C)nc(NCCC[C@@H](NC(=O)Cn2c3c(c4ccccc42)CN(C(=O)CN2CN(CC4CCCCC4)C4(CCN(C(=O)[C@H](CCCNC(=N)N)NC(=O)[C@H](N)CCCNC(=N)N)CC4)C2=O)CC3)C(N)=O)n1 [Compound 20]

Target: T1, human bradykinin B2 receptor
Assay: Radioligand binding, H2O.2 cell membranes, 3H-NPC17731
Conditions: not given
Method: as §1, §2, §3, §4, §5, §6

SMILES | pKi
N=C(N)NCCC[C@@H](N)C(=O)N[C@@H](CCCNC(=N)N)C(=O)N1CCC2(CC1)C(=O)N(CC(=O)N[C@@H](CO)C(=O)N1Cc3ccccc3C[C@@H]1C(=O)N1[C@H](C(=O)N[C@@H](CCCNC(=N)N)C(=O)O)C[C@@H]3CCCC[C@@H]31)CN2c1ccccc1 [drawing 59] | 8.11

Same assay, conditions: Table 1; 3H-NPC17731; read-out: Radioligand Binding Human 3H17731

SMILES | pKi
N=C(N)NCCC[C@@H](N)C(=O)N[C@@H](CCCNC(=N)N)C(=O)NCCCCCCCCCCCC(=O)N[C@@H](CO)C(=O)N1Cc2ccccc2C[C@@H]1C(=O)N1[C@H](C(=O)N[C@@H](CCCNC(=N)N)C(=O)O)C[C@@H]2CCCC[C@@H]21 (H-[dR]R[12Ado]S[dTic][Oic]R-OH) | 7.51
N=C(N)NCCC[C@@H](N)C(=O)N[C@@H](CCCNC(=N)N)C(=O)NCc1ccccc1/C=C/CC(=O)N[C@@H](CO)C(=O)N1Cc2ccccc2C[C@@H]1C(=O)N1[C@H](C(=O)N[C@@H](CCCNC(=N)N)C(=O)O)C[C@@H]2CCCC[C@@H]21 (H-[dR]R[X1]S[dTic][Oic]R-OH) | 7.77

Continued, values first:

pKi | SMILES
7.00 | N=C(N)NCCC[C@@H](N)C(=O)N[C@@H](CCCNC(=N)N)C(=O)NCCCCCC(=O)N[C@@H](CO)C(=O)N1Cc2ccccc2C[C@@H]1C(=O)N1[C@H](C(=O)N[C@@H](CCCNC(=N)N)C(=O)O)C[C@@H]2CCCC[C@@H]21 (H-[dR]R[Ahx]S[dTic][Oic]R-OH)
6.64 | N=C(N)NCCC[C@@H](N)C(=O)N[C@@H](CCCNC(=N)N)C(=O)NC/C=C/C(=O)N[C@@H](CO)C(=O)N1Cc2ccccc2C[C@@H]1C(=O)N1[C@H](C(=O)N[C@@H](CCCNC(=N)N)C(=O)O)C[C@@H]2CCCC[C@@H]21 (H-[dR]R[Butenoyl(2E,4-amino)]S[dTic][Oic]R-OH)
7.55 | N=C(N)NCCC[C@@H](N)C(=O)N[C@@H](CCCNC(=N)N)C(=O)NCc1ccccc1/C=C/C(=O)N(CC(=O)N[C@@H](CO)C(=O)N1Cc2ccccc2C[C@@H]1C(=O)N1[C@H](C(=O)N[C@@H](CCCNC(=N)N)C(=O)O)C[C@@H]2CCCC[C@@H]21)Cc1ccccc1 (H-[dR]R[X2][Nphe]S[dTic][Oic]R-OH)
7.24 | N=C(N)NCCC[C@@H](N)C(=O)N[C@@H](CCCNC(=N)N)C(=O)N1CCC(n2c(=O)n(CC(=O)N[C@@H](CO)C(=O)N3Cc4ccccc4C[C@@H]3C(=O)N3[C@H](C(=O)N[C@@H](CCCNC(=N)N)C(=O)O)C[C@@H]4CCCC[C@@H]43)c3ccccc32)CC1 (H-[dR]R[X3]S[dTic][Oic]R-OH)
7.11 | N=C(N)NCCC[C@@H](N)C(=O)N[C@@H](CCCNC(=N)N)C(=O)N1CCc2c(c3ccccc3n2CC(=O)N[C@@H](CO)C(=O)N2Cc3ccccc3C[C@@H]2C(=O)N2[C@H](C(=O)N[C@@H](CCCNC(=N)N)C(=O)O)C[C@@H]3CCCC[C@@H]32)C1 (H-[dR]R[X4]S[dTic][Oic]R-OH)
7.64 | N=C(N)NCCC[C@@H](N)C(=O)N[C@@H](CCCNC(=N)N)C(=O)NCCc1ccccc1/C=C/C(=O)N[C@@H](CO)C(=O)N1Cc2ccccc2C[C@@H]1C(=O)N1[C@H](C(=O)N[C@@H](CCCNC(=N)N)C(=O)O)C[C@@H]2CCCC[C@@H]21 (H-[dR]R[X6]S[dTic][Oic]R-OH)
8.48 | N=C(N)NCCC[C@@H](N)C(=O)N[C@@H](CCCNC(=N)N)C(=O)Nc1ccc2c3ccccc3c(=O)n(CC(=O)N[C@@H](CO)C(=O)N3Cc4ccccc4C[C@@H]3C(=O)N3[C@H](C(=O)N[C@@H](CCCNC(=N)N)C(=O)O)C[C@@H]4CCCC[C@@H]43)c2c1 (H-[dR]R[X7]S[dTic][Oic]R-OH)
